Measurements reported in the supplement of paper PMC9663587.

How the values were obtained:
[1] = test system: CAL120; test: GRmax, 72 h; higher = less effect;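 further: breast cell lines in 384-well plates, nine doses across a 10^4 range, Dye Drop imaging of viable cells vs DMSO and time-zero plates, GR 0 means no net growth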
[2] = test system: HCC1395; test: GRmax, 72 h; higher = less effect;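 further: breast cell lines in 384-well plates, nine doses across a 10^4 range, Dye Drop imaging of viable cells vs DMSO and time-zero plates, GR 0 means no net growth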
[3] = test system: HCC1954; test: GRmax, 72 h; higher = less effect;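 further: breast cell lines in 384-well plates, nine doses across a 10^4 range, Dye Drop imaging of viable cells vs DMSO and time-zero plates, GR 0 means no net growth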
[4] = test system: HCC202; test: GRmax, 72 h; higher = less effect;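 further: breast cell lines in 384-well plates, nine doses across a 10^4 range, Dye Drop imaging of viable cells vs DMSO and time-zero plates, GR 0 means no net growth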
[5] = test system: HCC70; test: GRmax, 72 h; higher = less effect
[6] = test system: HTERT_HME1; test: GRmax, 72 h; higher = less effect
[7] = test system: SUM190PT; test: GRmax, 72 h; higher = less effect
[8] = test system: HCC1428; test: area over the GR curve, 72 h; higher = more effect;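 further: Dye Drop or Deep Dye Drop imaging of viable cells in 384-well plates (Hoechst nuclei, LIVE/DEAD dye), nine half-log doses, GR normalized to DMSO controls and time-zero plates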
[9] = test system: HCC1500; test: area over the GR curve, 72 h; higher = more effect;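 further: Dye Drop or Deep Dye Drop imaging of viable cells in 384-well plates (Hoechst nuclei, LIVE/DEAD dye), nine half-log doses, GR normalized to DMSO controls and time-zero plates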
[10] = test system: MDAMB157; test: area over the GR curve, 72 h; higher = more effect;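 further: Dye Drop or Deep Dye Drop imaging of viable cells in 384-well plates (Hoechst nuclei, LIVE/DEAD dye), nine half-log doses, GR normalized to DMSO controls and time-zero plates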

Structure (SMILES)	GRmax, 72 h [1]	GRmax, 72 h [2]	GRmax, 72 h [3]	GRmax, 72 h [4]	GRmax, 72 h [5]	GRmax, 72 h [6]	GRmax, 72 h [7]	area over the GR curve [8]	area over the GR curve [9]	area over the GR curve [10]
COc1cccc2c1C(=O)c1c(O)c3c(c(O)c1C2=O)C[C@@](O)(C(=O)CO)C[C@@H]3O[C@H]1C[C@H](N)[C@H](O)[C@H](C)O1 [Doxorubicin] (max 3.162 µM)	-0.247 GR	-0.417 GR	-0.338 GR	0.245 GR	-0.779 GR	-0.399 GR	-0.123 GR	0.895 GR	0.751 GR	0.966 GR
CO[C@H]1C[C@@H]2CC[C@@H](C)[C@@](O)(O2)C(=O)C(=O)N2CCCC[C@H]2C(=O)O[C@H]([C@H](C)C[C@@H]2CC[C@@H](OCCO)[C@H](OC)C2)CC(=O)[C@H](C)/C=C(\C)[C@@H](O)[C@@H](OC)C(=O)[C@H](C)C[C@H](C)/C=C/C=C/C=C/1C [Everolimus] (max 10 µM)	0.527 GR	0.404 GR	0.326 GR	0.474 GR	0.373 GR	0.489 GR	0.354 GR	0.519 GR	1.26 GR	0.394 GR
CC(C)n1nc(-c2ccc3oc(N)nc3c2)c2c(N)ncnc21 [INK128/MLN0128] (max 3.162 µM)	-0.0097 GR	-0.0258 GR	-0.083 GR	-0.01 GR	-0.162 GR	0.197 GR	-0.425 GR	0.648 GR	1.23 GR	0.514 GR
CC(C)NC[C@@H](C(=O)N1CCN(c2ncnc3c2[C@H](C)C[C@H]3O)CC1)c1ccc(Cl)cc1 [Ipatasertib/GDC0068] (max 10 µM)	0.599 GR	0.19 GR	0.251 GR	0.306 GR	-0.262 GR	0.635 GR	0.525 GR	-0.0745 GR	-0.0881 GR	0.0813 GR
CCNC(=O)c1noc(-c2cc(C(C)C)c(O)cc2O)c1-c1ccc(CN2CCOCC2)cc1 [Luminespib/NVP-AUY922] (max 1 µM)	-0.115 GR	-0.152 GR	-0.374 GR	0.115 GR	-0.583 GR	-0.335 GR	-0.433 GR	0.637 GR	0.546 GR	0.615 GR
CCOc1cc2ncc(C#N)c(Nc3ccc(OCc4ccccn4)c(Cl)c3)c2cc1NC(=O)/C=C/CN(C)C [Neratinib/HKI272] (max 3.162 µM)	-0.261 GR	0.0167 GR	-0.0909 GR	0.0762 GR	0.0595 GR	0.0983 GR	0.42 GR	0.101 GR	0.165 GR	0.191 GR
O=C(c1cc(Cc2n[nH]c(=O)c3ccccc23)ccc1F)N1CCN(C(=O)C2CC2)CC1 [Olaparib/AZD2281] (max 10 µM)	0.269 GR	0.0945 GR	0.527 GR	0.606 GR	0.719 GR	0.591 GR	0.545 GR	0.323 GR	0.0931 GR	0.115 GR
CC(=O)O[C@H]1C(=O)[C@@]2(C)[C@H]([C@H](OC(=O)c3ccccc3)[C@]3(O)C[C@H](OC(=O)[C@H](O)[C@@H](NC(=O)c4ccccc4)c4ccccc4)C(C)=C1C3(C)C)[C@]1(OC(C)=O)CO[C@@H]1C[C@@H]2O [Paclitaxel] (max 1 µM)	-0.199 GR	-0.458 GR	-0.396 GR	0.0855 GR	-0.506 GR	-0.224 GR	-0.283 GR	0.507 GR	0.609 GR	0.946 GR
CS(=O)(=O)N1CCN(Cc2cc3nc(-c4cccc5[nH]ncc45)nc(N4CCOCC4)c3s2)CC1 [Pictilisib/GDC0941] (max 10 µM)	0.194 GR	-0.0143 GR	-0.227 GR	-0.0303 GR	-0.597 GR	0.126 GR	0.0145 GR	0.117 GR	0.203 GR	0.258 GR
CN1CCN(CCOc2cc(OC3CCOCC3)c3c(Nc4c(Cl)ccc5c4OCO5)ncnc3c2)CC1 [Saracatinib/AZD0530] (max 10 µM)	0.526 GR	0.12 GR	0.0936 GR	-0.22 GR	-0.172 GR	0.46 GR	0.581 GR	0.0609 GR	0.433 GR	0.17 GR
Cc1cc(C(C)Nc2ccccc2)c2nc(N3CCOCC3)cc(=O)n2c1 (stereo not drawn) [TGX221] (max 10 µM)	1.02 GR	0.458 GR	0.961 GR	0.782 GR	0.0049 GR	1.03 GR	0.989 GR	0.0058 GR	0.0613 GR	-0.005 GR
Cc1nc(-c2cn3c(n2)-c2ccc(-c4cnn(C(C)(C)C(N)=O)c4)cc2OCC3)n(C(C)C)n1 [Taselisib/GDC0032] (max 10 µM)	0.151 GR	-0.0177 GR	-0.363 GR	0.0192 GR	-0.685 GR	0.0336 GR	-0.253 GR	0.139 GR	0.209 GR	0.339 GR
O=C1NC(=O)[C@@H](c2cn3c4c(cccc24)CCC3)[C@@H]1c1c[nH]c2ccccc12 [Tivantinib/ARQ197] (max 10 µM)	-0.256 GR	-0.483 GR	-0.385 GR	0.114 GR	-0.566 GR	-0.161 GR	-0.138 GR	0.345 GR	0.491 GR	0.388 GR
CC[C@@]1(O)C(=O)OCc2c1cc1n(c2=O)Cc2cc3c(CN(C)C)c(O)ccc3nc2-1 [Topotecan] (max 10 µM)	-0.336 GR	-0.584 GR	-0.401 GR		-0.861 GR	-0.34 GR		0.835 GR	1.22 GR	1.08 GR
Nc1ccc(-c2ccc3ncc4ccc(=O)n(-c5cccc(C(F)(F)F)c5)c4c3c2)cn1 [Torin2] (max 1 µM)	-0.0115 GR	-0.142 GR	-0.328 GR	0.0177 GR	-0.555 GR	0.0764 GR	-0.391 GR	0.439 GR	0.888 GR	0.41 GR
CC[C@@H]1C(=O)N(C)c2cnc(Nc3ccc(C(=O)N[C@H]4CC[C@H](N5CCN(CC6CC6)CC5)CC4)cc3OC)nc2N1C(C)C [Volasertib/BI6727] (max 1 µM)	0.0258 GR	-0.296 GR	-0.154 GR	0.224 GR	-0.205 GR	-0.0817 GR	-0.309 GR	0.395 GR	0.297 GR	0.851 GR
O=C(CCCCCCC(=O)Nc1ccccc1)NO [Vorinostat] (max 10 µM)	-0.228 GR	-0.0589 GR	-0.14 GR	0.104 GR	-0.476 GR	0.0551 GR	-0.431 GR	0.339 GR	0.301 GR	0.297 GR
